The first data set has as its system plasma enzymes.
Conditions: not given
Take `Cc1ncc(COP(=O)(N[C@@H](C)C(=O)Oc2ccc3ccccc3c2)Oc2ccccc2)c(C=O)c1O` (stereo partly drawn) [Compound 16xiv, (2S)-Naphthalen-2-yl 2-(((4-formyl-5-hydroxy-6-methylpyridin-3-yl)methoxy)(phenoxy)phosphorylamino)propanoate]: the “stability in DMSO (stock solution)” value is “unstable in DMSO”. With `Cc1ncc(COP(=O)(NCC(=O)OC(C)C)Oc2ccccc2)c(C=O)c1O` (centres unmarked) [Compound 16xv, Isopropyl 2-(((4-formyl-5-hydroxy-6-methylpyridin-3-yl)methoxy)(phenoxy)phosphorylamino)acetate], the “stability in DMSO (stock solution)” value was “unstable in DMSO”.

Staying with this data set, now noted: Sprague Dawley, rat.
As for `Cc1ncc(COP(=O)(NC(CC(F)(F)F)C(=O)OC(C)C)Oc2ccccc2)c(CO)c1O` (centres unmarked) [Compound 15xiv, Isopropyl 4,4,4-trifluoro-2-(((5-hydroxy-4-(hydroxymethyl)-6-methylpyridin-3-yl)methoxy)(phenoxy)phosphorylamino)butanoate], the P5P formed came to 0.1 µM and the “relative P5P formed” value came out at 2.6%. For the molecule `[2H]c1c([2H])c([2H])c(OP(=O)(N[C@@H](C)C(=O)OC(C)C)OCc2cnc(C)c(O)c2CO)c([2H])c1[2H]` (some centres unmarked) [Compound 15xix], the P5P formed is 0.4 µM and the “relative P5P formed” value was 7.4%.

In the case of `Cc1ncc(COP(=O)(N[C@@H](C)C(=O)OC(C)C)Oc2ccccc2)c(CO)c1OC(=O)c1ccccc1` (stereo partly drawn) [Compound 15xvii, (2S)-Isopropyl 2-(((5-benzoyloxy-4-(hydroxymethyl)-6-methylpyridin-3-yl)methoxy)(phenoxy)phosphorylamino)propanoate], the P5P formed stood at 0.3 µM and the “relative P5P formed” value stood at 8.3%. For the molecule `[2H]C([2H])([2H])c1ncc(C([2H])([2H])OP(=O)(N[C@@H](C)C(=O)OC(C)C)Oc2ccccc2)c(CO)c1O` (some centres unmarked) [Compound 15xxxi], the P5P formed was determined as 0.5 µM and the “relative P5P formed” value came to 20.0%. Take `CCC(CC)COC(=O)[C@H](C)NP(=O)(OCc1cnc(C)c(O)c1CO)Oc1ccccc1` (some centres unmarked) [Compound 15xxxiv]: the P5P formed came to 0 µM and the “relative P5P formed” value came out at 0.0%. Regarding `Cc1ncc(COP(=O)(N[C@@H](C)C(=O)OC(C)C)Oc2cccc3ccccc23)c(C=O)c1O` (stereo partly drawn) [Compound 16iv, (2S)-Isopropyl 2-(((4-formyl-5-hydroxy-6-methylpyridin-3-yl)methoxy)(naphthalen-1-yloxy)phosphorylamino)propanoate], the P5P formed was 1.8 µM and the “relative P5P formed” value amounted to 47.4%. With `Cc1ncc(COP(=O)(N[C@@H](C)C(=O)OCc2ccccc2)Oc2ccccc2)c(C=O)c1O` (stereo partly drawn) [Compound 16ix, (2S)-Benzyl 2-(((4-formyl-5-hydroxy-6-methylpyridin-3-yl)methoxy)(phenoxy)phosphorylamino)propanoate], the P5P formed came out at 10.3 µM and the “relative P5P formed” value stood at 98.1%. On to `Cc1ncc(COP(=O)(N[C@@H](C)C(=O)OCC2CCCC2)Oc2ccccc2)c(C=O)c1O` (stereo partly drawn) [Compound 16x, (2S)-Cyclopentylmethyl 2-(((4-formyl-5-hydroxy-6-methylpyridin-3-yl)methoxy)(phenoxy)phosphorylamino)propanoate], for which the P5P formed is 1.95 µM and the “relative P5P formed” value was found to be 121.9%. For `Cc1ncc(COP(=O)(N[C@@H](C)C(=O)Oc2ccc(Cl)cc2)Oc2ccccc2)c(C=O)c1O` (stereo partly drawn) [Compound 16xL, (2S)-4-Chlorophenyl 2-(((4-formyl-5-hydroxy-6-methylpyridin-3-yl)methoxy)(phenoxy)phosphorylamino)propanoate], in that order: 3.6 µM and 171.4%. On to `Cc1ncc(COP(=O)(NC(CC(F)(F)F)C(=O)OC(C)C)Oc2ccccc2)c(C=O)c1O` (centres unmarked) [Compound 16xi, Isopropyl 4,4,4-trifluoro-2-(((4-formyl-5-hydroxy-6-methylpyridin-3-yl)methoxy)(phenoxy)phosphorylamino)butanoate], for which the P5P formed is 0.6 µM and the “relative P5P formed” value was 15.8%. The like results for `Cc1ncc(COP(=O)(N[C@@H](Cc2cn(C(=O)OC(C)(C)C)c3ccccc23)C(=O)OC(C)C)Oc2ccccc2)c(C=O)c1O` (stereo partly drawn) [Compound 16xiii, Tert-butyl 3-((2S)-2-(((4-formyl-5-hydroxy-6-methylpyridin-3-yl)methoxy)(phenoxy)phosphorylamino)-3-isopropoxy-3-oxopropyl)-1H-indole-1-carboxylate] were, in that order, 0.3 µM and 7.9%.

`[2H]c1c([2H])c([2H])c(OP(=O)(N[C@@H](C)C(=O)OC(C)C)OCc2cnc(C)c(O)c2C=O)c([2H])c1[2H]` (some centres unmarked) [Compound 16xx]: the P5P formed was determined as 1.4 µM and the “relative P5P formed” value amounted to 38.9%. With `[2H]C([2H])([2H])C([2H])(OC(=O)[C@H](C)NP(=O)(OCc1cnc(C)c(O)c1C=O)Oc1ccccc1)C([2H])([2H])[2H]` (some centres unmarked) [Compound 16xxi], the P5P formed stood at 0.3 µM and the “relative P5P formed” value amounted to 17.6%. Turning to `[2H]C([2H])([2H])C(OC(=O)[C@H](C)NP(=O)(OCc1cnc(C)c(O)c1C=O)Oc1ccccc1)C([2H])([2H])[2H]` (some centres unmarked) [Compound 16xxii], the P5P formed is 6.3 µM and the “relative P5P formed” value was found to be 153.7%. With `Cc1ccc(OC(=O)[C@H](C)NP(=O)(OCc2cnc(C)c(O)c2C=O)Oc2ccccc2)cc1` (stereo partly drawn) [Compound 16xxiii, (2S)-p-Tolyl 2-(((4-formyl-5-hydroxy-6-methylpyridin-3-yl)methoxy)(phenoxy)phosphorylamino)propanoate], the P5P formed was 2 µM and the “relative P5P formed” value came to 74.1%. Consider `Cc1ncc(COP(=O)(N[C@@H](C)C(=O)OC2CCCC2)Oc2ccccc2)c(C=O)c1O` (stereo partly drawn) [Compound 16xxiv, (2S)-Cyclopentyl 2-(((4-formyl-5-hydroxy-6-methylpyridin-3-yl)methoxy)(phenoxy)phosphorylamino)propanoate], for which the P5P formed was 2.2 µM and the “relative P5P formed” value is given as 129.4%. Consider `Cc1ncc(COP(=O)(N[C@@H](Cc2ccc(OCc3ccccc3)cc2)C(=O)OC(C)C)Oc2ccccc2)c(C=O)c1O` (stereo partly drawn) [Compound 16xxix, (2S)-Isopropyl 3-(4-(benzyloxy)phenyl)-2-(((4-formyl-5-hydroxy-6-methylpyridin-3-yl)methoxy)(phenoxy)phosphorylamino)propanoate], for which the P5P formed worked out at 2.4 µM and the “relative P5P formed” value was 58.5%.

For the molecule `[2H]C([2H])(OP(=O)(N[C@@H](C)C(=O)OC(C)C)Oc1ccccc1)c1cnc(C)c(O)c1C=O` (some centres unmarked) [Compound 16xxvii], the P5P formed worked out at 2 µM and the “relative P5P formed” value stood at 69.0%.

Turning to `Cc1ncc(COP(=O)(N[C@H](C(=O)OC(C)C)C2CCCC2)Oc2ccccc2)c(C=O)c1O` (stereo partly drawn) [Compound 16xxviii, (2S)-Isopropyl 2-cyclopentyl-2-(((4-formyl-5-hydroxy-6-methylpyridin-3-yl)methoxy)(phenoxy)phosphorylamino)acetate], the P5P formed is 0.4 µM and the “relative P5P formed” value stood at 9.8%. With `Cc1ncc(COP(=O)(N[C@@H](Cc2ccc(O)cc2)C(=O)OC(C)C)Oc2ccccc2)c(C=O)c1O` (stereo partly drawn) [Compound 16xxx, (2S)-Isopropyl 2-(((4-formyl-5-hydroxy-6-methylpyridin-3-yl)methoxy)(phenoxy)phosphorylamino)-3-(4-hydroxyphenyl)propanoate], the P5P formed is 2.2 µM and the “relative P5P formed” value stood at 75.9%. With `Cc1ncc(COP(=O)(N[C@@H](C)C(=O)OC2CCN(C)CC2)Oc2ccccc2)c(C=O)c1O` (stereo partly drawn) [Compound 16xxxi, (2S)-1-Methylpiperidin-4-yl 2-(((4-formyl-5-hydroxy-6-methylpyridin-3-yl)methoxy)(phenoxy)phosphorylamino)propanoate], the P5P formed worked out at 0.4 µM and the “relative P5P formed” value came to 13.8%. Regarding `COCCOC(=O)[C@H](C)NP(=O)(OCc1cnc(C)c(O)c1C=O)Oc1ccccc1` (stereo partly drawn) [Compound 16xxxii, (2S)-2-Methoxyethyl 2-(((4-formyl-5-hydroxy-6-methylpyridin-3-yl)methoxy)(phenoxy)phosphorylamino)propanoate], the P5P formed turned out to be 4.9 µM and the “relative P5P formed” value is given as 144.1%.

For the molecule `COC(=O)[C@@H]1CCCN1P(=O)(OCc1cnc(C)c(O)c1C=O)Oc1ccccc1` (stereo partly drawn) [Compound 16xxxiii, (2S)-Methyl 1-(((4-formyl-5-hydroxy-6-methylpyridin-3-yl)methoxy)(phenoxy)phosphoryl)pyrrolidine-2-carboxylate], the P5P formed was found to be 0.4 µM and the “relative P5P formed” value turned out to be 11.8%. On to `Cc1ncc(COP(=O)(N[C@@H](C)C(=O)Oc2ccc3c(c2)CCCC3)Oc2ccccc2)c(C=O)c1O` (stereo partly drawn) [Compound 16xxxiv, (2S)-5,6,7,8-Tetrahydronaphthalen-2-yl 2-(((4-formyl-5-hydroxy-6-methylpyridin-3-yl)methoxy)(phenoxy)phosphorylamino)propanoate], for which the P5P formed is 4.9 µM and the “relative P5P formed” value is on record as 144.1%. Turning to `Cc1ncc(COP(=O)(N[C@@H](C)C(=O)OC(C)C)Oc2ccc(Br)cc2F)c(C=O)c1O` (stereo partly drawn) [Compound 16xxxix, (2S)-Isopropyl 2-((4-bromo-2-fluorophenoxy)((4-formyl-5-hydroxy-6-methylpyridin-3-yl)methoxy)phosphorylamino)propanoate], the P5P formed was determined as 2.3 µM and the “relative P5P formed” value is listed as 92.0%. With `Cc1ncc(CO[P@@](=O)(N[C@@H](C)C(=O)OC(C)C)Oc2ccccc2)c(/C=N/C2CCCC2)c1O` [Compound 16xxxvi, (S)-Isopropyl 2-((S)-((4-((E)-(cyclopentylimino)methyl)-5-hydroxy-6-methylpyridin-3-yl)methoxy)(phenoxy)phosphorylamino)propanoate], the P5P formed worked out at 3.8 µM and the “relative P5P formed” value is 152.0%. For the molecule `Cc1ccc(OP(=O)(N[C@@H](C)C(=O)OC(C)C)OCc2cnc(C)c(O)c2C=O)cc1` (stereo partly drawn) [Compound 16xxxvii, (2S)-Isopropyl 2-(((4-formyl-5-hydroxy-6-methylpyridin-3-yl)methoxy)(p-tolyloxy)phosphorylamino)propanoate], the P5P formed came out at 0.3 µM and the “relative P5P formed” value is listed as 12.0%.
Wherever P5P formed is given: test concentration or dose not given here.
